Laboratory results: US20220073536A1 (Rigel Pharmaceuticals, Inc., priority 2003, published 2022)
pIC50: −log10 of the molar value.

How the values were obtained:
[1] = system: cultured human mast cells (CHMC); test: CHMC low cell density ionomycin activation: tryptase assay; assay type: cell-based; details: low cell density CHMC, tryptase release, 3 point, read-out: LD Tryptase, CHMC, Iono, 3 pt
[2] = system: cultured human mast cells (CHMC); test: CHMC low cell density IgE activation: tryptase assay; assay type: cell-based; details: low cell density CHMC, IgE activation, tryptase release
Method in brief: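 Low-density CHMC, 1000-1500 cells/well in MT; 1 hr 37 °C; anti-IgE challenge 30 min 37 °C; supernatant tryptase via fluorogenic substrate, 30 min RT.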

[3] = Homo sapiens, Mast cell, 3 point, read-out: LD Tryptase, CHMC, IgE, 3 pt
[4] = 3 point, read-out: LD Tryptase, CHMC, IgE, 3 pt
[5] = 8 point, read-out: LD Tryptase, CHMC, IgE, 8 pt
[6] = Homo sapiens, Mast cell, 8 point, read-out: LD Tryptase, CHMC, IgE, 8 pt

Q: How did the pIC50 ([1]; Homo sapiens, Mast cell) turn out when `CNC(=O)c1ccc(Nc2ncc(F)c(N(C)c3cc(C)c(Cl)c(C)c3)n2)cc1Cl` [Compound 613, N4-(4-Chloro-3,5-dimethylphenyl)-N2-[3-chloro-4-(N-methylamino)carbonylphenyl]-5-fluoro-N4-methyl-2,4-pyrimidinediamine] was run?
A: < 5.00

Q: And the pIC50 [2, 3]?
A: > 5.00

Q: What does the source list for `COC(=O)COc1ccc(Nc2nc(Nc3cc(C)cc(C)c3)ncc2F)cc1Cl` [Compound 614, N4-[3-Chloro-4-(methoxycarbonyl)methyleneoxyphenyl]-N2-(3,5-dimethylphenyl)-5-fluoro-2,4-pyrimidinediamine]?
A: pIC50 [1]: > 5.00; pIC50 [2, 4]: > 5.00; pIC50 [2, 5]: > 5.00

Q: With `COC(=O)COc1ccc(Nc2nc(Nc3cc(OC)cc(OC)c3)ncc2F)cc1Cl` [Compound 615, N4-[3-Chloro-4-(methoxycarbonyl)methyleneoxyphenyl]-N2-(3,5-dimethoxyphenyl)-5-fluoro-2,4-pyrimidinediamine] as the compound, how does the pIC50 [1] read?
A: > 5.00

Q: And the pIC50 [2, 4]?
A: > 5.00

Q: What about the pIC50 [2, 5] of the same compound?
A: > 5.00

Q: With `COC(=O)COc1ccc(Nc2nc(Nc3ccc(OC)c(Cl)c3)ncc2F)cc1Cl` [Compound 616, N4-[3-Chloro-4-(methoxycarbonyl)methyleneoxyphenyl]-N2-(3-chloro-4-methoxyphenyl)-5-fluoro-2,4-pyrimidinediamine] as the compound, how does the pIC50 [1] read?
A: > 5.00

Q: What about the pIC50 [2, 4] of the same compound?
A: > 5.00

Q: What about the pIC50 [2, 5] of the same compound?
A: > 5.00

Q: How did the pIC50 [1] turn out when `COC(=O)COc1ccc(Nc2nc(Nc3cc(C)c(Cl)c(C)c3)ncc2F)cc1Cl` [Compound 617, N2-(4-Chloro-3,5-dimethylphenyl)-N4-[3-chloro-4-(methoxycarbonyl)methyleneoxyphenyl]-5-fluoro-2,4-pyrimidinediamine] was run?
A: > 5.00

Q: What about the pIC50 [2, 4] of the same compound?
A: > 5.00

Q: What about the pIC50 [2, 5] of the same compound?
A: > 5.00

Q: `COC(=O)COc1ccc(Nc2nc(Nc3ccc4[nH]ccc4c3)ncc2F)cc1Cl` [Compound 618, N4-[3-Chloro-4-(methoxycarbonyl)methyleneoxyphenyl]-5-fluoro-N2-(indol-5-yl)-2,4-pyrimidinediamine] was tested. Which pIC50 [1] did it give?
A: < 5.00

Q: What about the pIC50 [2, 4] of the same compound?
A: > 5.00

Q: What about the pIC50 [2, 5] of the same compound?
A: > 5.00

Q: What does the source list for `Cc1cc(C)cc(Nc2ncc(F)c(Nc3ccc(OCCO)c(Cl)c3)n2)c1` [Compound 619, N4-[3-Chloro-4-(2-hydroxyethyleneoxy)phenyl]-N2-(3,5-dimethylphenyl)-5-fluoro-2,4-pyrimidinediamine]?
A: pIC50 [1]: > 5.00; pIC50 [2, 4]: > 5.00; pIC50 [2, 5]: > 5.00

Q: `COc1cc(Nc2ncc(F)c(Nc3ccc(OCCO)c(Cl)c3)n2)cc(OC)c1` [Compound 620, N4-[3-Chloro-4-(2-hydroxyethyleneoxy)phenyl]-N2-(3,5-dimethoxyphenyl)-5-fluoro-2,4-pyrimidinediamine] was tested. Which pIC50 [1] did it give?
A: > 5.00

Q: What about the pIC50 [2, 4] of the same compound?
A: > 5.00

Q: And the pIC50 [2, 5]?
A: > 5.00

Q: `COc1ccc(Nc2ncc(F)c(Nc3ccc(OCCO)c(Cl)c3)n2)cc1Cl` [Compound 621, N4-[3-Chloro-4-(2-hydroxyethyleneoxy)phenyl]-N2-(3-chloro-4-methoxyphenyl)-5-fluoro-2,4-pyrimidinediamine] was tested. Which pIC50 [1] did it give?
A: < 5.00

Q: What about the pIC50 [2, 4] of the same compound?
A: > 5.00

Q: What about the pIC50 [2, 5] of the same compound?
A: > 5.00

Q: What does the source list for `Cc1cc(Nc2ncc(F)c(Nc3ccc(OCCO)c(Cl)c3)n2)cc(C)c1Cl` [Compound 622, N2-(4-Chloro-3,5-dimethylphenyl)-N4-[3-chloro-4-(2-hydroxyethyleneoxy)phenyl]-5-fluoro-2,4-pyrimidinediamine]?
A: pIC50 [1]: < 5.00; pIC50 [2, 4]: > 5.00; pIC50 [2, 5]: > 5.00

Q: With `OCCOc1ccc(Nc2nc(Nc3ccc4[nH]ccc4c3)ncc2F)cc1Cl` [Compound 623, N4-[3-Chloro-4-(2-hydroxyethyleneoxy)phenyl]-5-fluoro-N2-(indol-5-yl)-2,4-pyrimidinediamine] as the compound, how does the pIC50 [1] read?
A: > 5.00

Q: What about the pIC50 [2, 4] of the same compound?
A: > 5.00

Q: What about the pIC50 [2, 5] of the same compound?
A: > 5.00

Q: With `COc1cc(Nc2ncc(F)c(Nc3ccc(OCCO)c(Cl)c3)n2)ccc1Cl` [Compound 624, N4-[3-Chloro-4-(2-hydroxyethyleneoxy)phenyl]-N2-(4-chloro-3-methoxyphenyl)-5-fluoro-2,4-pyrimidinediamine] as the compound, how does the pIC50 [1] read?
A: < 5.00

Q: What about the pIC50 [2, 4] of the same compound?
A: > 5.00

Q: What about the pIC50 [2, 5] of the same compound?
A: > 5.00

Q: With `CNC(=O)COc1ccc(Nc2nc(Nc3ccc4[nH]ccc4c3)ncc2F)cc1Cl` [Compound 625, N4-[3-Chloro-4-(N-methylamino)carbonylmethyleneoxyphenyl]-5-fluoro-N2-(indol-5-yl)-2,4-pyrimidinediamine] as the compound, how does the pIC50 [1] read?
A: > 5.00

Q: And the pIC50 [2, 4]?
A: > 5.00

Q: And the pIC50 [2, 5]?
A: > 5.00

Q: With `Cc1cc(N(C)c2nc(Cl)ncc2F)cc(C)c1Cl` [Compound 626] as the compound, how does the pIC50 ([1]; Homo sapiens, Mast cell) read?
A: > 5.00

Q: What about the pIC50 [2, 3] of the same compound?
A: < 5.00

Q: What does the source list for `CN(c1ccc2c(c1)OC(F)(F)C(F)(F)O2)c1nc(Cl)ncc1F` [Compound 627]?
A: pIC50 [1]: < 5.00; pIC50 [2, 4]: < 5.00

Q: With `CN(c1ccc2c(c1)OC(F)(F)O2)c1nc(Cl)ncc1F` [Compound 628] as the compound, how does the pIC50 [1] read?
A: < 5.00

Q: And the pIC50 [2, 4]?
A: < 5.00

Q: `Fc1cnc(Nc2ccc3cc[nH]c3c2)nc1Nc1ccc(Cl)c(C(F)(F)F)c1` [Compound 629, N4-(4-Chloro-3-trifluoromethylphenyl)-5-fluoro-N2-(indol-6-yl)-2,4-pyrimidinediamine] was tested. Which pIC50 ([1]; Homo sapiens, Mast cell) did it give?
A: < 5.00

Q: And the pIC50 [2, 3]?
A: > 5.00

Q: What about the pIC50 [2, 6] of the same compound?
A: > 5.00

Q: With `COc1cc(Nc2nc(Nc3ccc4cc[nH]c4c3)ncc2F)ccc1Cl` [Compound 630, N4-(4-Chloro-3-methoxyphenyl)-5-fluoro-N2-(indol-6-yl)-2,4-pyrimidinediamine] as the compound, how does the pIC50 ([1]; Homo sapiens, Mast cell) read?
A: < 5.00

Q: What about the pIC50 [2, 3] of the same compound?
A: > 5.00

Q: And the pIC50 [2, 6]?
A: > 5.00

Q: How did the pIC50 [1] turn out when `COC(=O)COc1ccc(Nc2nc(Nc3ccc4cc[nH]c4c3)ncc2F)cc1Cl` [Compound 631, N4-(3-Chloro-4-methoxycarbonylmethyleneoxyphenyl)-5-fluoro-N2-(indol-6-yl)-2,4-pyrimidinediamine] was run?
A: > 5.00

Q: What about the pIC50 [2, 4] of the same compound?
A: > 5.00

Q: What about the pIC50 [2, 5] of the same compound?
A: > 5.00

Q: What does the source list for `OCCOc1ccc(Nc2nc(Nc3ccc4cc[nH]c4c3)ncc2F)cc1Cl` [Compound 632, N4-[3-Chloro-4-(2-hydroxyethyleneoxy)phenyl]-5-fluoro-N2-(indol-6-yl)-2,4-pyrimidinediamine]?
A: pIC50 [1]: < 5.00; pIC50 [2, 4]: > 5.00; pIC50 [2, 5]: > 5.00

Q: Which results are given for `Fc1cnc(Nc2cccc(-c3ncco3)c2)nc1Nc1ccc2c(c1)OC(F)(F)C(F)(F)O2` [Compound 633]?
A: pIC50 [1]: < 5.00; pIC50 [2, 4]: > 5.00

Q: What does the source list for `CN(c1ccc2c(c1)OC(F)(F)C(F)(F)O2)c1nc(Nc2cccc(-c3ncco3)c2)ncc1F` [Compound 634]?
A: pIC50 [1]: < 5.00; pIC50 [2, 4]: < 5.00; pIC50 [2, 5]: > 5.00

Q: With `CNC(=O)COc1c(C)cc(Nc2ncc(F)c(N(C)c3ccc4c(c3)OCCO4)n2)cc1C` [Compound 635, N2-[3,5-Dimethyl-4-(N-methylamino)carbonylmethyleneoxyphenyl]-N4-(3,4-ethylenedioxyphenyl)-5-fluoro-N4-methyl-2,4-pyrimidinediamine] as the compound, how does the pIC50 [1] read?
A: > 5.00

Q: And the pIC50 [2, 4]?
A: > 5.00

Q: What about the pIC50 [2, 5] of the same compound?
A: > 5.00

Q: With `CNC(=O)COc1c(C)cc(Nc2ncc(F)c(N(C)c3ccc4c(c3)OC(F)(F)C(F)(F)O4)n2)cc1C` [Compound 636, N2-[3,5-Dimethyl-4-(N-methylamino)carbonylmethyleneoxyphenyl]-5-fluoro-N4-methyl-N4-[3,4-(tetrafluoroethylenedioxy)phenyl]-2,4-pyrimidinediamine] as the compound, how does the pIC50 [1] read?
A: > 5.00

Q: And the pIC50 [2, 4]?
A: > 5.00

Q: And the pIC50 [2, 5]?
A: > 5.00

Q: With `CNC(=O)COc1c(C)cc(Nc2ncc(F)c(Nc3ccc4c(c3)OC(F)(F)C(F)(F)O4)n2)cc1C` [Compound 637, N2-[3,5-Dimethyl-4-(N-methylamino)carbonylmethyleneoxyphenyl]-5-fluoro-N4-[3,4-(tetrafluoroethylenedioxy)phenyl]-2,4-pyrimidinediamine] as the compound, how does the pIC50 [1] read?
A: < 5.00

Q: What about the pIC50 [2, 4] of the same compound?
A: > 5.00

Q: `CNC(=O)COc1c(C)cc(Nc2ncc(F)c(N(C)c3cc(OC)cc(OC)c3)n2)cc1C` [Compound 638, N2-[3,5-Dimethyl-4-(N-methylamino)carbonylmethyleneoxyphenyl]-N4-(3,5-dimethoxyphenyl)-5-fluoro-N4-methyl-2,4-pyrimidinediamine] was tested. Which pIC50 [1] did it give?
A: > 5.00

Q: What about the pIC50 [2, 4] of the same compound?
A: > 5.00

Q: What about the pIC50 [2, 5] of the same compound?
A: > 5.00

Q: Which results are given for `COC(=O)Cn1ccc2ccc(Nc3ncc(F)c(Nc4ccc5c(c4)NC(=O)C(C)(C)O5)n3)cc21` [Compound 639, N4-(2,2-Dimethyl-3-oxo-4H-benz[1,4]oxazin-6-yl)-5-fluoro-N2-[1-(methoxycarbonylmethylene)indol-6-yl]-2,4-pyrimidinediamine]?
A: pIC50 [1]: < 5.00; pIC50 [2, 4]: > 5.00; pIC50 [2, 5]: > 5.00

Q: How did the pIC50 [1] turn out when `CNC(=O)COc1ccc(Nc2nc(Nc3ccc4ccn(CC(=O)OC)c4c3)ncc2F)cc1Cl` [Compound 640, N4-[3-Chloro-4-(N-methylamino)carbonylmethyleneoxyphenyl]-5-fluoro-N2-[1-(methoxycarbonylmethylene)indol-6-yl]-2,4-pyrimidinediamine] was run?
A: < 5.00

Q: What about the pIC50 [2, 4] of the same compound?
A: > 5.00

Q: And the pIC50 [2, 5]?
A: > 5.00

Q: With `COC(=O)Cn1ccc2ccc(Nc3ncc(F)c(Nc4ccc(Cl)c(OC)c4)n3)cc21` [Compound 641, N4-(4-Chloro-3-methoxyphenyl)-5-fluoro-N2-[1-(methoxycarbonylmethylene)indol-6-yl]-2,4-pyrimidinediamine] as the compound, how does the pIC50 [1] read?
A: > 5.00

Q: What about the pIC50 [2, 4] of the same compound?
A: > 5.00

Q: What about the pIC50 [2, 5] of the same compound?
A: > 5.00

Q: Which results are given for `COC(=O)Cn1ccc2ccc(Nc3ncc(F)c(Nc4ccc5c(c4)OCCO5)n3)cc21` [Compound 642, N4-(3,4-Ethylenedioxyphenyl)-5-fluoro-N2-[1-(methoxycarbonylmethylene)indol-6-yl]-2,4-pyrimidinediamine]?
A: pIC50 [1]: < 5.00; pIC50 [2, 4]: > 5.00; pIC50 [2, 5]: > 5.00
